Results published in publication PMC12692861, “Biotin-Linked Ursolic Acid Conjugates as Selective Anticancer Agents and Target-Identification Tools for Cancer Therapy” (Molecules, 2025).

Experiments:
[1] = tested on: RNA-binding protein 39 (RBM39); experiment: Streptavidin pulldown proteomics (LC-MS/MS), MB49 cells; design: species or system murine; conditions: MB-49, 50 µM
Description: (§1) We used proteomics to identify potential molecular targets of 5c. A pulldown assay with streptavidin-agarose-coated magnetic beads was performed. Briefly, 5637 and MB49 cells were incubated with 50 µM 5c for 10 min and 1 h. After incubation, the cells were rinsed three times with cold phosphate-buffered saline (PBS), and cell lysates were prepared and clarified by centrifugation to remove cellular debris, including nuclei. The clarified lysates were incubated with streptavidin-coated magnetic beads to selectively bind biotinylated contents. Bound proteins were separated from unbound proteins through thorough bead washing. Proteins attached to the beads were eluted and analyzed on an Orbitrap Fusion Tribrid mass spectrometer (Thermo Scientific, New York, NY, USA) coupled with an Ultimate 3000 nano-UPLC system. Samples were trapped on a PepMap100 C18 trap column (5 µm, 0.3 × 5 mm) and separated on a PepMap RSLC C18 column (2 µm, 75 µm × 150 mm) using a gradient from 2 to 40% acetonitrile with 0.1% formic acid over 120 min at […] and 40 °C. MS data were acquired in positive mode using data-dependent acquisition (DDA), with precursor scans at 120,000 FWHM (400–2000 m/z), and MS/MS scans in top-speed mode (3 s cycle) using HCD fragmentation (NCE 32%). Proteins were identified and quantified based on peptide spectral matches (PSMs), and fold enrichment compared to controls was calculated to evaluate interaction strength.
(§2) The 5637 and MB49 cells were cultured and treated with higher concentrations of 5c (50 µM) for short period of times (10 min & 60 min) followed by whole cell lysis (WCL) preparation of both treated and untreated cells using modified RIPA buffer [NaCl (100mM), TrisCl (20mM, pH 7.4), EDTA (10 mM), TritonX-100 (0.5%), Glycerol (5%), Protease inhibitor cocktail (1x)] with gentle continuous rotation. The protein content of each WCL was estimated using Pierce™ BCA Protein Assay kit (Thermo-Scientific # 23225). The 100 µL of resuspended Dynabeads™ MyOne™ Streptavidin C1 (Invitrogen # 65001) were washed with PBST (PBS with 0.01% Tween™20) in a magnet stand as recommended in the manufacturer’s instructions. The washed beads were incubated with 200 µg of each WCL in separate tubes at room temperature for 2 h in a gentle end-over-end mixing. After incubation, beads were washed 3–5 times with PBST (0.01% Tween-20) on a magnetic stand and beads were decanted by after spinning and magnetization. The samples were stored at −80 °C till further analysis using LC-MS/MS by the Proteomics and Mass Spectrometry Core Laboratory of Augusta University.

[2] = tested on: ATP-binding cassette sub-family A; experiment: as above; design: species or system murine; conditions: MB-49, 50 µM
Description: as §1, §2

[3] = target: Poly(U)-binding-splicing factor 60 (PUF60) (Mus musculus, UniProt Q3UEB3); experiment: as above; design: species or system murine; conditions: MB-49, 50 µM
Description: as §1, §2

DNA topoisomerase = experiment: Streptavidin pulldown proteomics (LC-MS/MS), 5637 cells; assay type: binding, human; conditions: 5637, 50 µM
Description: as §1, §2

[4] = tested on: Coiled-coil domain-containing protein; experiment: as above; assay type: binding, human; conditions: 5637, 50 µM
Description: as §1, §2

[5] = tested on: Eukaryotic translation initiation factor 2 (eIF2); experiment: as above; assay type: binding, human; conditions: 5637, 50 µM
Description: as §1, §2

[6] = tested on: Eukaryotic initiation factor 4A (eIF4A); experiment: as above; assay type: binding, human; conditions: 5637, 50 µM
Description: as §1, §2

[7] = target: RNA-binding protein 39 (RBM39) (Homo sapiens, UniProt Q14498); experiment: as above; conditions: 5637, 50 µM
Description: as §1, §2

[8] = target: Poly(U)-binding-splicing factor 60 (PUF60) (Homo sapiens, UniProt Q9UHX1); experiment: as above; conditions: 5637, 50 µM
Description: as §1, §2

HSC 71 = HSC 71 (Homo sapiens, UniProt P11142); experiment: as above; assay type: binding; conditions: 5637, 50 µM
Description: as §1, §2

[9] = target: Ribosomal L1 domain-containing protein 1 (RSL1D1) (Homo sapiens, UniProt O76021); experiment: as above; assay type: binding; conditions: 5637, 50 µM
Description: as §1, §2

Histone H4 = Histone H4 (Homo sapiens, UniProt P62805); experiment: as above; assay type: binding; conditions: 5637, 50 µM
Description: as §1, §2

[10] = target: Heterogeneous nuclear ribonucleoprotein U (HNRNPU) (Homo sapiens, UniProt Q00839); experiment: as above; assay type: binding; conditions: 5637, 50 µM
Description: as §1, §2

ATP synthase subunit O = ATP synthase subunit O (Homo sapiens, UniProt P48047); experiment: as above; assay type: binding; conditions: 5637, 50 µM
Description: as §1, §2

[11] = tested on: ATP-binding cassette sub-family A; experiment: as above; design: species or system human; conditions: 5637, 50 µM
Description: as §1, with “MS data were acquired in positive mode using data-dependent acquisition (DDA), with precursor scans at 120,000 FWHM (400–2000 m/z), and MS/MS scans in top-speed mode (3 s cycle) using HCD fragmentation (NCE 32%).” left out, “strength. […]” for “strength.”

[12] = target: ATP synthase subunit beta (Mus musculus, UniProt P56480); experiment: Streptavidin pulldown proteomics (LC-MS/MS), MB49 cells; assay type: binding, murine; conditions: MB-49, 50 µM
Description: as §1, §2

Histone H2A.Z = Histone H2A.Z (Mus musculus, UniProt P0C0S6); experiment: as above; assay type: binding, murine; conditions: MB-49, 50 µM
Description: as §1, §2

[13] = target: Ras GTPase-activating-like protein IQGAP1 (Mus musculus, UniProt Q9JKF1); experiment: as above; assay type: binding, murine; conditions: MB-49, 50 µM
Description: as §1, §2

[14] = tested on: Eukaryotic translation initiation factor 2 (eIF2); experiment: as above; assay type: binding, murine; conditions: MB-49, 50 µM
Description: as §1, §2

HSP 90-alpha (HSP90α) = HSP 90-alpha (HSP90α) (Mus musculus, UniProt P07901); experiment: as above; assay type: binding, murine; conditions: MB-49, 50 µM
Description: as §1, §2

[15] = target: Elongation factor 1-gamma (EF1γ) (Mus musculus, UniProt Q9D8N0); experiment: as above; assay type: binding, murine; conditions: MB-49, 50 µM
Description: as §1, §2

[16] = target: Elongation factor 2 (eEF2) (Mus musculus, UniProt P58252); experiment: as above; assay type: binding, murine; conditions: MB-49, 50 µM
Description: as §1, §2

Histone H2A.Z, sequence (P0C0S6 whole entry): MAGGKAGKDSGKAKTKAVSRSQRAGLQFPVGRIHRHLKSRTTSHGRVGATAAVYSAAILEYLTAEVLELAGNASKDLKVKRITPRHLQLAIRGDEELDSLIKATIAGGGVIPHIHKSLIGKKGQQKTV
ATP synthase subunit beta, sequence (P56480 47-529): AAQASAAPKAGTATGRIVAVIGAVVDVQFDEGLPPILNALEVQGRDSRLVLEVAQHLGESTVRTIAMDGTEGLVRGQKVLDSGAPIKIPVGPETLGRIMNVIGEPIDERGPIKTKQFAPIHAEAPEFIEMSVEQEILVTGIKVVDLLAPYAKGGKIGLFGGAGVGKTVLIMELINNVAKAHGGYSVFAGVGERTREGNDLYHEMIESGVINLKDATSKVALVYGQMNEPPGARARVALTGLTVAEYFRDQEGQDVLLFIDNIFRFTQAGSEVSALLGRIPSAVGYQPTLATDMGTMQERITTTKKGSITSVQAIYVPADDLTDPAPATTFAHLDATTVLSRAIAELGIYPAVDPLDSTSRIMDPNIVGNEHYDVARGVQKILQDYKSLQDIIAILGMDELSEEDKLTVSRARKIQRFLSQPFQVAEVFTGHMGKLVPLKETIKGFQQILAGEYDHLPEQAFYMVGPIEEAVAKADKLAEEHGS
ATP synthase subunit beta, sequence (Q03265 44-553 partner): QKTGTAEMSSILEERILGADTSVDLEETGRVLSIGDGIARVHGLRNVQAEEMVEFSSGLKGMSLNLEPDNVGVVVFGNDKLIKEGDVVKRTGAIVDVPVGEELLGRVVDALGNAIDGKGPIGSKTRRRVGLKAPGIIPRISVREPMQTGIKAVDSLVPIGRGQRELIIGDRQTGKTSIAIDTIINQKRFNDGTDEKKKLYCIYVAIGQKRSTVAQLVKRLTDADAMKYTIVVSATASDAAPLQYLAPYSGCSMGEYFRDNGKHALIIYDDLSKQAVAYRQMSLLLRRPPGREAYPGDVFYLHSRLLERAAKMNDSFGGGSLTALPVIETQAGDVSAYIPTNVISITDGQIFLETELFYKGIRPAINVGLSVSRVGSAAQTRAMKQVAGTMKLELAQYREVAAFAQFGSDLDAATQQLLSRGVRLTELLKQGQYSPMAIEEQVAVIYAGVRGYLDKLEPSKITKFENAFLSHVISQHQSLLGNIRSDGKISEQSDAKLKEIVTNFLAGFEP
ATP synthase subunit beta, sequence (Q91VR2 26-298 partner): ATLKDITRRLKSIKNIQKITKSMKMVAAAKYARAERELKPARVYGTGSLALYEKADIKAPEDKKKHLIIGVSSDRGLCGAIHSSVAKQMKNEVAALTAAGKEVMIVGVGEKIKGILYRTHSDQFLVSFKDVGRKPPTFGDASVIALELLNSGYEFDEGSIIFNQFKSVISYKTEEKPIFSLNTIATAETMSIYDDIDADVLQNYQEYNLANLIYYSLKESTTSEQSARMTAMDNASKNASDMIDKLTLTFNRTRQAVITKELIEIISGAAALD
RNA-binding protein 39 (RBM39) (Homo sapiens, UniProt Q14498), sequence (Q14498 whole entry): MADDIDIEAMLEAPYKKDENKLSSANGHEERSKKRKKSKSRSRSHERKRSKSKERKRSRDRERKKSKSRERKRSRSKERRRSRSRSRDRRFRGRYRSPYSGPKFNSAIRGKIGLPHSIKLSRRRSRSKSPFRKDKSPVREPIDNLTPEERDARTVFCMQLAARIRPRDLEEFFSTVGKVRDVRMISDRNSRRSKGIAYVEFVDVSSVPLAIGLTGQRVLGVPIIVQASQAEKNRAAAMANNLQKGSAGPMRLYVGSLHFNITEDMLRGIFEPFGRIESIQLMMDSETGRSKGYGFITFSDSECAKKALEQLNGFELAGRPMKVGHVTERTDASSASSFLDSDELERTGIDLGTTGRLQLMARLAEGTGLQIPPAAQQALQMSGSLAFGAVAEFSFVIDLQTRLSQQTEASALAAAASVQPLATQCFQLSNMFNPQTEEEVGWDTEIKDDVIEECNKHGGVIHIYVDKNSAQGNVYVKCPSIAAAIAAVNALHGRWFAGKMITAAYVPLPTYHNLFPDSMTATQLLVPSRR
Ras GTPase-activating-like protein IQGAP1, sequence (Q9JKF1 whole entry): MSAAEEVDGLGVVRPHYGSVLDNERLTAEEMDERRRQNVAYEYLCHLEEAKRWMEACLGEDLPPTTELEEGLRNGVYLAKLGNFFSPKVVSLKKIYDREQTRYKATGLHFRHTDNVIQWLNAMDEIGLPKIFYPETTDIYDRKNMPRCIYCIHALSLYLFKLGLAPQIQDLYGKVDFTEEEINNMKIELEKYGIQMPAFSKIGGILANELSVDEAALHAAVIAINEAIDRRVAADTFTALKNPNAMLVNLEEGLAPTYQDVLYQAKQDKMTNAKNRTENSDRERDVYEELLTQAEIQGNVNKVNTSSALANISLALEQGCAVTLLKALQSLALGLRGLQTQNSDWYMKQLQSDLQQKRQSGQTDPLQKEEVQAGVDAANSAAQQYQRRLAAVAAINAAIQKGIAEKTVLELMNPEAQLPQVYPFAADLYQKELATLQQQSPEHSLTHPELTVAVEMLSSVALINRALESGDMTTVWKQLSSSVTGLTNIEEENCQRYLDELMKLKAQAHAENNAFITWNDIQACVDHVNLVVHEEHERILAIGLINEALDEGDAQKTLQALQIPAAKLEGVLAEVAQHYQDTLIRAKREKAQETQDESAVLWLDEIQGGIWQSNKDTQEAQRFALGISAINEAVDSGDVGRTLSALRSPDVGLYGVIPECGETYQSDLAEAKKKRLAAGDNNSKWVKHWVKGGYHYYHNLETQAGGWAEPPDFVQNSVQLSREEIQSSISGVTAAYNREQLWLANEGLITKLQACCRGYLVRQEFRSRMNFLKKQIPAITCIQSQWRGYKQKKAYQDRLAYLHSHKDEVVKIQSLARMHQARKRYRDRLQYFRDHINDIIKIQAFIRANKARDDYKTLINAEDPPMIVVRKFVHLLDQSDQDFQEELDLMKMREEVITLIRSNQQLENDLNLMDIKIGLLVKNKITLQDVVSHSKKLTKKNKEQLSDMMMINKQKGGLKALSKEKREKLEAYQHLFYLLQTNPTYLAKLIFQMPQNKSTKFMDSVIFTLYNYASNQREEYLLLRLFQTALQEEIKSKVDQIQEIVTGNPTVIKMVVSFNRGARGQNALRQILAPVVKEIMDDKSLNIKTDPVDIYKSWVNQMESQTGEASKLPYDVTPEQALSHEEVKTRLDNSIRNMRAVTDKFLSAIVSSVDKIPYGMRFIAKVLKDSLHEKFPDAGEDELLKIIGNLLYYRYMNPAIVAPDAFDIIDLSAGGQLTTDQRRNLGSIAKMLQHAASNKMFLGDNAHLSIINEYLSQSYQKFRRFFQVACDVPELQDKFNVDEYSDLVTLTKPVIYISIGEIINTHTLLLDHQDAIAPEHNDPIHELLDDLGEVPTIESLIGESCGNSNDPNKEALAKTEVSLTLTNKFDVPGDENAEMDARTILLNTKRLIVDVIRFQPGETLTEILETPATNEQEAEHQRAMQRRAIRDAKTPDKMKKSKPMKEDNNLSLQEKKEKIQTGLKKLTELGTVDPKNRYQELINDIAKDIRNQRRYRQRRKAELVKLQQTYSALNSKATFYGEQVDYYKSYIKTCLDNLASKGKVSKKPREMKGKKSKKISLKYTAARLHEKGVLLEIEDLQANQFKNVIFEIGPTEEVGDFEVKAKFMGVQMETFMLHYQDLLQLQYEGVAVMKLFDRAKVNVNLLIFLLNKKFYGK
Poly(U)-binding-splicing factor 60 (PUF60) (Mus musculus, UniProt Q3UEB3), sequence (Q3UEB3 whole entry): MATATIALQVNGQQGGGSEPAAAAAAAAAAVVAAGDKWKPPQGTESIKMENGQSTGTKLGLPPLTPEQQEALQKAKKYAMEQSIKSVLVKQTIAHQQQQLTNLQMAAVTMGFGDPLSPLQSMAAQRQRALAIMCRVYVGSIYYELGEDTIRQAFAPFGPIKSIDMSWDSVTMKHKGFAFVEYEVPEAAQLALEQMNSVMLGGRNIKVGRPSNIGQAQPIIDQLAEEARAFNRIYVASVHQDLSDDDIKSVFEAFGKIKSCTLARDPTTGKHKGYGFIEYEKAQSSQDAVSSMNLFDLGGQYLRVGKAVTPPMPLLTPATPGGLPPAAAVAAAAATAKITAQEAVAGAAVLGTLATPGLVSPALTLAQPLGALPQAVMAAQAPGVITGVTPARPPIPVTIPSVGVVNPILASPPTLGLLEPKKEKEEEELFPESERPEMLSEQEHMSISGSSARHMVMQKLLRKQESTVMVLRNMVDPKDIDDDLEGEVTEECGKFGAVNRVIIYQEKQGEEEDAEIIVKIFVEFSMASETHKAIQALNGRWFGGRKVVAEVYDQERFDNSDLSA
Poly(U)-binding-splicing factor 60 (PUF60) (Homo sapiens, UniProt Q9UHX1), sequence (Q9UHX1 whole entry): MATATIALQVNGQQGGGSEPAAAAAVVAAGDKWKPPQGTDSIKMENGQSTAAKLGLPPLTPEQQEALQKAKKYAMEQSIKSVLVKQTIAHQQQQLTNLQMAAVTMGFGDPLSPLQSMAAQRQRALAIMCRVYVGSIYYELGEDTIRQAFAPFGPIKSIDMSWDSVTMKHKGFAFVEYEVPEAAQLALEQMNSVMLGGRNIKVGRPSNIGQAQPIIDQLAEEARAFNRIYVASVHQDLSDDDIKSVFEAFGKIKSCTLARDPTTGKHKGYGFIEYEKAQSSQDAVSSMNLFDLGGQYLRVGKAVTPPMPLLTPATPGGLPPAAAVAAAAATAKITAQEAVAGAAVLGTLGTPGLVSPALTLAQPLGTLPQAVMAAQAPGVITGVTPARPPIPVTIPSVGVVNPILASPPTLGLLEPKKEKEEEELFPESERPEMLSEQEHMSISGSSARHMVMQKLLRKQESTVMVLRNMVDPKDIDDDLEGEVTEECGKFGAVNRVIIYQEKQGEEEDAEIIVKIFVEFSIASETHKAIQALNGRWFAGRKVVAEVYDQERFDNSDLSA

Fold Change 10 min/Ctrl [3]: 2.33
Fold Change 1 h/Ctrl [3]: 3.33
Fold Change 10 min/Ctrl [7]: 3.5
Fold Change 1 h/Ctrl [7]: 3
Fold Change 10 min/Ctrl [8]: 6
Fold Change 1 h/Ctrl [8]: 5
Fold Change 10 min/Ctrl (HSC 71): 5.25
Fold Change 1 h/Ctrl (HSC 71): 6.25
Fold Change 10 min/Ctrl [9]: 5
Fold Change 1 h/Ctrl [9]: 4
Fold Change 10 min/Ctrl (Histone H4): 13.23
Fold Change 1 h/Ctrl (Histone H4): 11.08
Fold Change 10 min/Ctrl [10]: 4.33
Fold Change 1 h/Ctrl [10]: 4.33
Fold Change 10 min/Ctrl (ATP synthase subunit O): 3
Fold Change 1 h/Ctrl (ATP synthase subunit O): 3
Fold Change 10 min/Ctrl [12]: 1.31
Fold Change 1 h/Ctrl [12]: 1.82
Fold Change 10 min/Ctrl (Histone H2A.Z): 1.86
Fold Change 1 h/Ctrl (Histone H2A.Z): 1.20
Fold Change 10 min/Ctrl [13]: 1
Fold Change 1 h/Ctrl [13]: 3
Fold Change 10 min/Ctrl (HSP 90-alpha (HSP90α)): 1.07
Fold Change 1 h/Ctrl (HSP 90-alpha (HSP90α)): 1.25
Fold Change 1 h/Ctrl [15]: 1
Fold Change 10 min/Ctrl [16]: 3
Fold Change 1 h/Ctrl [16]: 2
Structure (SMILES): CC1CCC2(C(=O)OCCCCOC(=O)CCCCC3SCC4NC(=O)NC43)CCC3(C)C(=CCC4C5(C)CCC(O)C(C)(C)C5CCC43C)C2C1C [Compound 5c, 4-((5-((3aS,4S,6aR)-2-Oxohexahydro-1H-thieno [3,4-d]imidazol-4-yl)pentanoyl)oxy) butyl 3-hydroxy-urs-12-en-28-oate]
Fold Change 10 min/Ctrl [1]: 2
Fold Change 1 h/Ctrl [1]: 1.71
Fold Change 10 min/Ctrl [2]: 1
Fold Change 1 h/Ctrl [2]: 2
Fold Change 10 min/Ctrl (DNA topoisomerase): 0.08
Fold Change 1 h/Ctrl (DNA topoisomerase): 0.11
Fold Change 10 min/Ctrl [4]: 0
Fold Change 1 h/Ctrl [4]: 2
Fold Change 10 min/Ctrl [5]: 14
Fold Change 1 h/Ctrl [5]: 7
Fold Change 10 min/Ctrl [6]: 22
Fold Change 1 h/Ctrl [6]: 19
Fold Change 10 min/Ctrl [11]: 3
Fold Change 1 h/Ctrl [11]: 5
Fold Change 10 min/Ctrl [14]: 2
Fold Change 1 h/Ctrl [14]: 0
